The assay has as its target T1, JAK3: Recombinant human kinase domain (810-1124) (Homo sapiens, UniProt P52333).
T1 construct: JAK3: Recombinant human kinase domain (810-1124); made in house
The assay is described as follows: Determination of IC50 of Janus Kinase (JAK) inhibition, JAK3, radioactive end-point assay with 33P-ATP. As to conditions: no additive; 0.1 nM JAK3, ATP 1.5 uM, peptide 50 uM, 20 minutes; read-out: Ic50 h-jak3-sf21-c: no additive. In kind it is biochemical.

This note sets out measurements from patent US8012974B2, “Pyrrolopyrazinyl urea kinase inhibitors” (Roche Palo Alto LLC, priority 2008, dated 2011).

In general, IC50 refers to the midpoint of a concentration-inhibition curve.

Molecules are shown by their SMILES.

T1 sequence (P52333 810-1124): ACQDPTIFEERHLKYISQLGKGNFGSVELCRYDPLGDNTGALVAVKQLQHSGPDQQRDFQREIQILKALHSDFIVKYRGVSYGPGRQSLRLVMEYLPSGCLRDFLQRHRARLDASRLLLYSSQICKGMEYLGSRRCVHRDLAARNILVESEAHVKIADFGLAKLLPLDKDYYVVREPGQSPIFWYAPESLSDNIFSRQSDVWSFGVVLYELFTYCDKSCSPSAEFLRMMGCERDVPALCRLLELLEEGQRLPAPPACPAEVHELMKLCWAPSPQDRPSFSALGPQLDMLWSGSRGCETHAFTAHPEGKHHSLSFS
Source text: Determination of IC50 of Janus Kinase (JAK) Inhibition:
Enzymes and peptide substrate used are described below: • JAK1: Recombinant human kinase domain (866-1154) from Invitrogen (Cat # PV4774) • JAK3: Recombinant human kinase domain (810-1124) made in house by Roche Palo Alto • JAK2: Recombinant human kinase domain (808-1132) from Millipore (Cat # 14-640) • Substrate: N-terminally biotinylated 14-mer peptide derived from activation loop of JAK1 with sequence of the peptide substrate: Biotin-[sequence]
Assay conditions used are described below: • Assay Buffer: JAK Kinase Buffer: 50 mM Hepes [pH 7.2], 10 mM MgCl2, 1 mM DTT, 1 mg/ml BSA. The assay is carried out in this buffer. • Assay Format The kinase activity of all three JAK kinases is measured using a radioactive, end-point assay and with trace amounts of ^33P-ATP. The assays are carried out in 96-well polypropylene plates. Experimental Method:
All concentrations are final in the reaction mixture and all incubations are carried at room temperature. […] 1 wash with water. • 6) Washed plates are dried in a 60° C. oven for between 1 to 2 hours. • 7) 70 ul of Microscint 20 scintillation fluid is added to each well of filter plates and after at least 30 minutes of incubation, radioactive counts are measured in a Perkinelmer microplate scintillation counter.

With `O=C(NCC1CCCCC1)Nc1cnc2[nH]ccc2n1` [Compound I-6, 1-Cyclohexylmethyl-3-(5H-pyrrolo[2,3-b]pyrazin-2-yl)-urea], the IC50 was 326 nM.
To `O=C(NCCc1ccccc1)Nc1cnc2[nH]ccc2n1` [Compound I-10, 1-Phenethyl-3-(5H-pyrrolo[2,3-b]pyrazin-2-yl)-urea] belongs 144 nM.
